Source: ChEMBL document CHEMBL5465560, “Selectivity Literature for EUbOPEN Chemogenomic Library” (2024)
One block for each compound: values may come before it.

How the values were obtained:
[1] = biological target: Mitogen-activated protein kinase kinase kinase kinase 4 (Homo sapiens, UniProt O95819); assay: Selectivity interaction (KinomeScan (DiscoverX)) EUB0000607a MAP4K4; details: at 10 µM
[2] = biological target: T1, Serine/threonine-protein kinase ULK1 (Homo sapiens) (UniProt O75385); assay: Selectivity interaction (KinomeScan (DiscoverX)) EUB0000607a ULK1; details: at 10 µM
T1 sequence (whole entry): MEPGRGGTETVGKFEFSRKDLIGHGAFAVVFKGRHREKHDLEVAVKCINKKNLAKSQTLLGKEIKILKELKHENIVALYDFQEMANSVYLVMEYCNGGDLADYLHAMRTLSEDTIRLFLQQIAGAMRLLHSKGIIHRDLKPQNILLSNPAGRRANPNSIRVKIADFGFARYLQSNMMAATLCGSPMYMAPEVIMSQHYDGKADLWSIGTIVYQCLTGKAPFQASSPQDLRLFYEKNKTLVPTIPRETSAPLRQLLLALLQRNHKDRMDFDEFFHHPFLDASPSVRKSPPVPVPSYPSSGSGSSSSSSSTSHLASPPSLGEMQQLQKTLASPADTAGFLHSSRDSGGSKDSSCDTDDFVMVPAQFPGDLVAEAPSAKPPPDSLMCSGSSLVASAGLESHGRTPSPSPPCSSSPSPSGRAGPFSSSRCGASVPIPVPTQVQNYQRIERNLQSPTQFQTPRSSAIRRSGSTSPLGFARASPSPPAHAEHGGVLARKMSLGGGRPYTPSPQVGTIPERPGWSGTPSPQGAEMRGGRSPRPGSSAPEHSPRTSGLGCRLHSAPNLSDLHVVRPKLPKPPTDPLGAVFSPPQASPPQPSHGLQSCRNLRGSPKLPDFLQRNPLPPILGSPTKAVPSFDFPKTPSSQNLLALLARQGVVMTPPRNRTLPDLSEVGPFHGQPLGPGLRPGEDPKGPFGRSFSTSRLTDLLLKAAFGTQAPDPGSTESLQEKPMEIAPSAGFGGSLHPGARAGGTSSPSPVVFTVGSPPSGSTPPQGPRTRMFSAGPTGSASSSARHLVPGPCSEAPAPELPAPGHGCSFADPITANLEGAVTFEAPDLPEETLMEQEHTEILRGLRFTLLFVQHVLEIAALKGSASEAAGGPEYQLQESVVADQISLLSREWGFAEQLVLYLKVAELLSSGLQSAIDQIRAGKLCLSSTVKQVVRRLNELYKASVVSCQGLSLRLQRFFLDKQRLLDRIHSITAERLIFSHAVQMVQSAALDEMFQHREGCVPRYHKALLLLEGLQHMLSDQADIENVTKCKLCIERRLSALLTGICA

[3] = biological target: T2, Kinase suppressor of Ras 1 (Homo sapiens) (UniProt Q8IVT5); assay: Selectivity interaction (Kinase panel (KiNativ target engagement assay in Jurkat cells)) EUB0001635a KSR1; assay type: cell-based; details: at 1 µM
T2 sequence (whole entry): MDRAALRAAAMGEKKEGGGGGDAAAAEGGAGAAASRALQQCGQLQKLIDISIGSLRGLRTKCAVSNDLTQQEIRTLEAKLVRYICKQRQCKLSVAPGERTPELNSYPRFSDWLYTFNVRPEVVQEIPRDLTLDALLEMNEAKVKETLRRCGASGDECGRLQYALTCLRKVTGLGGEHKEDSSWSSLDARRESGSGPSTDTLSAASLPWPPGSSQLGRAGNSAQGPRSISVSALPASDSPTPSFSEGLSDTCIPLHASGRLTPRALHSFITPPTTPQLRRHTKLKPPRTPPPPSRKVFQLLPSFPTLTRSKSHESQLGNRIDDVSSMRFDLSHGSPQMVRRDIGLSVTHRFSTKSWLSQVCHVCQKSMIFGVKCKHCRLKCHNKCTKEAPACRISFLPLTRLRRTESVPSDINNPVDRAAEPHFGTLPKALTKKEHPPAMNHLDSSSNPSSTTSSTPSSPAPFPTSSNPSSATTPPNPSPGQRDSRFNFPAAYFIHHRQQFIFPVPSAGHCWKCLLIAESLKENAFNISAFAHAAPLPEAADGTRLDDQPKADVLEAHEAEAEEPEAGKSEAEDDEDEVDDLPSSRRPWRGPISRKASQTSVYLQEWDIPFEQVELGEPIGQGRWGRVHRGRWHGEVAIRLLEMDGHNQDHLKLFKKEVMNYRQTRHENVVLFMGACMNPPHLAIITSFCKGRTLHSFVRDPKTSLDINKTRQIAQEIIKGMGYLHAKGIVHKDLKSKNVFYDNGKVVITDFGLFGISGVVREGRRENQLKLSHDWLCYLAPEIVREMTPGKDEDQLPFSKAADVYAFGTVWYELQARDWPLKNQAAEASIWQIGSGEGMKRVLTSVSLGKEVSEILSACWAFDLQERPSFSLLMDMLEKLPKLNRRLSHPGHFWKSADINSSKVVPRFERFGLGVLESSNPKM

[4] = biological target: T3, Cytoplasmic tyrosine-protein kinase BMX (Homo sapiens) (UniProt P51813); assay: Selectivity interaction (ProQinase) EUB0000171b BMX
T3 sequence (whole entry): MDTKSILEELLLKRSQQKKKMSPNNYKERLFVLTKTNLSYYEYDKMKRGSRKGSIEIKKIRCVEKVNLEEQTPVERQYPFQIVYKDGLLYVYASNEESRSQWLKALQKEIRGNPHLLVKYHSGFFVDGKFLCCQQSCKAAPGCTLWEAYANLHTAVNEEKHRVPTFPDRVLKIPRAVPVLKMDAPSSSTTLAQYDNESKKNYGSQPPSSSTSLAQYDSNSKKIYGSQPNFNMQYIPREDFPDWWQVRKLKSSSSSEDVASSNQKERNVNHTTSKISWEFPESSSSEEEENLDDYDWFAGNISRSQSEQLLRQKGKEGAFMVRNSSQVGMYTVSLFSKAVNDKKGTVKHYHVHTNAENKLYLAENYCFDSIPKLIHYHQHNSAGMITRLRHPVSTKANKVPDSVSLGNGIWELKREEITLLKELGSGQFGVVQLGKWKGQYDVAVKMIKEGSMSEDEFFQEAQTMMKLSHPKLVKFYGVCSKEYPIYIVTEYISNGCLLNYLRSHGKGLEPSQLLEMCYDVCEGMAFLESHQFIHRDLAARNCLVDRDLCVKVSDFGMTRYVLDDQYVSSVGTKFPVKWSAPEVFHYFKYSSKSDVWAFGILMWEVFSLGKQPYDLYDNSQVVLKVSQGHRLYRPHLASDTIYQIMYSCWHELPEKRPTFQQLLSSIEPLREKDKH

[5] = biological target: Bone morphogenetic protein receptor type-1B (Homo sapiens, UniProt O00238); assay: Selectivity interaction (KinomeScan (DiscoverX)) EUB0001049a BMPR1B; details: at 1 µM
Chain of Bone morphogenetic protein receptor type-1B (O00238 whole entry): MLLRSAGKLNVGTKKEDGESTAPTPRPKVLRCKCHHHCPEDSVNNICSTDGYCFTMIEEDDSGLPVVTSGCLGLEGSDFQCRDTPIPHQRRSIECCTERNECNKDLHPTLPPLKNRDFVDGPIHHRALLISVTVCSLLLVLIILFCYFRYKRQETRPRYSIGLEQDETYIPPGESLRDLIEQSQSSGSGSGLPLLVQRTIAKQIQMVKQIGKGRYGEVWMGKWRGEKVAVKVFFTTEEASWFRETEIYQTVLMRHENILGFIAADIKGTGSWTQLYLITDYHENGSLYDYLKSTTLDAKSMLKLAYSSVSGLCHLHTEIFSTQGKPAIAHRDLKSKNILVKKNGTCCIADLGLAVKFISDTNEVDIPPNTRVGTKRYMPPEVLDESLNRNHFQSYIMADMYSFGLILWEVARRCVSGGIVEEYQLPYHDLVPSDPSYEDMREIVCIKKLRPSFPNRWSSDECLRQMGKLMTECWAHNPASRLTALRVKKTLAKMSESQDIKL

[6] = biological target: Dual specificity protein kinase CLK1 (Homo sapiens, UniProt P49759); assay: Selectivity interaction (Kinase panel (Z-LYTE Assay)) EUB0001632a CLK1; details: at 10 µM
Chain of Dual specificity protein kinase CLK1 (P49759 whole entry, looked up): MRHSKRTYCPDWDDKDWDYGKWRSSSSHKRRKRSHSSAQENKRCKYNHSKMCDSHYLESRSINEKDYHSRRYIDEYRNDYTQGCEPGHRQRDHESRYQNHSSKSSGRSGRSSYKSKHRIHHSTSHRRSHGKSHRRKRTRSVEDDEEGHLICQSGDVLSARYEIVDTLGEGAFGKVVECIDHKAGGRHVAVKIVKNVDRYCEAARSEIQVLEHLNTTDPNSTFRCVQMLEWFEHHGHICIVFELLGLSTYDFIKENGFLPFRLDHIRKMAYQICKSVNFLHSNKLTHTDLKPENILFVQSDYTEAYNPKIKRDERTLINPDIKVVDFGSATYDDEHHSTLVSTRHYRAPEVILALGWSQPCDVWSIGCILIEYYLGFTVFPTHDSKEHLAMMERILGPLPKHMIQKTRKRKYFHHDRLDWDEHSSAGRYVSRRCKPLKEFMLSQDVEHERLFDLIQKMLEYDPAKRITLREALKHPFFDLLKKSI

Chain of Mitogen-activated protein kinase kinase kinase kinase 4 (O95819 2-1239 limits assumed): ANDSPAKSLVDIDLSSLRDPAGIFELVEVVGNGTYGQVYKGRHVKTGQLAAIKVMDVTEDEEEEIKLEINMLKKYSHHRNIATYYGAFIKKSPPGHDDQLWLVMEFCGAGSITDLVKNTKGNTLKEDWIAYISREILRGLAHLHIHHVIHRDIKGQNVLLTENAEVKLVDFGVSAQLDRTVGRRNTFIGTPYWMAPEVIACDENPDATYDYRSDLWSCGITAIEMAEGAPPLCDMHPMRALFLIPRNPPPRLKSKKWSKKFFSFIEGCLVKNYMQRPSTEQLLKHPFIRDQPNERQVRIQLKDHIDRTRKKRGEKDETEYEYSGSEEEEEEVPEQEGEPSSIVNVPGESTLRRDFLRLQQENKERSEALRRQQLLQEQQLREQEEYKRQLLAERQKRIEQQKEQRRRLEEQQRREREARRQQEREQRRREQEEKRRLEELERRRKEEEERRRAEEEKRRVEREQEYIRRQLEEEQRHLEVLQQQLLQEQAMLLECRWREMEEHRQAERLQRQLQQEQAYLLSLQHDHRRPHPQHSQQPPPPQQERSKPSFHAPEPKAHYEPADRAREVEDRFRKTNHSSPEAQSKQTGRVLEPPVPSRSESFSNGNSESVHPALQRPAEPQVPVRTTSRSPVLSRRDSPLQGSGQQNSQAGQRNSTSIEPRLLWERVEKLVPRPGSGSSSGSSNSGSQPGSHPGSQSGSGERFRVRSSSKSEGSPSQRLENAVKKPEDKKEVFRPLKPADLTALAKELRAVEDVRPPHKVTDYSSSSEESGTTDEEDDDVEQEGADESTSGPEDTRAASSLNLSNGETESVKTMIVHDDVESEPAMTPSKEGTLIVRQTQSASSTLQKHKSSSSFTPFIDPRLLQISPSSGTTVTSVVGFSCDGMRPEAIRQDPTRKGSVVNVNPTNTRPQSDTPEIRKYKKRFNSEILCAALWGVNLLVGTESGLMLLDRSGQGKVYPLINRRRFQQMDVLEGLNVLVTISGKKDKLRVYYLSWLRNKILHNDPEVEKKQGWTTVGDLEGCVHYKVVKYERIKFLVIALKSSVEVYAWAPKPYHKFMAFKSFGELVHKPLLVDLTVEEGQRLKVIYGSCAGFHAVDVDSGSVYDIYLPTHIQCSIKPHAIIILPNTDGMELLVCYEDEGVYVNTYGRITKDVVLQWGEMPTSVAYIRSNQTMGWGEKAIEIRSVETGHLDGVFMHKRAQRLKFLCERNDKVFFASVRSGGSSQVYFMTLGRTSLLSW

Structure (SMILES): CNC(=O)Nc1ccc(-c2nc(N3CC4CCC(C3)O4)c3cnn(C4CCC5(CC4)OCCO5)c3n2)cc1
% of control [1]: 85%
% of control [2]: 100%

Structure (SMILES): C=CC(=O)Nc1ccc(C(=O)Nc2[nH]nc3c2CN(C(=O)N[C@H](CN(C)C)c2ccccc2)C3(C)C)cc1
% of engagement [3]: -1.6%

% of control ([4]; at 1 µM): 106%
% of control ([4]; at 5 µM): 85%
Structure (SMILES): C=CC(=O)Nc1cccc(C(=O)Nc2ccc(Nc3cc(-c4[nH]c(SC)nc4C)ccn3)cc2)c1

Structure (SMILES): COc1cc(Nc2nc(C)cc(-c3cnn4nc(OC)ccc34)n2)cc(C(F)(F)F)c1
% of control [5]: 81%

% of control [6]: 8.07%
Structure (SMILES): Cn1cc(-n2cnc3c(NCc4nc5cc(Cl)c(Cl)cc5[nH]4)nc(N4CCOCC4)nc32)cn1
